In ChEMBL document CHEMBL3272017, “Adrenergic sulfonanilides. 4. Centrally active beta-adrenergic agonists” (J Med Chem, 1976):
Active and inactive are the calls of the source. The rule behind the calls is not given here.

Assays:
Cavia porcellus = organism: Cavia porcellus; assay: Agonist activity at beta-adrenoceptor in guinea pig tracheal spiral assessed as potency for 75% relaxation of spontaneous contraction relative to soterenol; type: tissue-based; settings: Trachea
Rattus norvegicus [1] = assay: Antagonism of morphine-induced analgesia in rat at 20 mg/kg, sc; type: functional
Rattus norvegicus [2] = assay: Antagonism of morphine-induced analgesia in rat at 1.2 mg/kg, sc; type: functional, organism-based; design: dose 1.2 mg/kg
Mus musculus [3] = assay: Analgesic activity in sc dosed mouse assessed as reduction in phenylalanine-induced writhing; type: functional
Mus musculus [4] = assay: Inhibition of reserpine-induced ptosis in po dosed mouse; type: functional
Mus musculus [5] = assay: Reversal of reserpine-induced ptosis in po dosed mouse; type: functional
Rattus norvegicus [6] = assay: Induction of cAMP level in Sprague-Dawley rat hypothalamus at 0.3 mg/kg, sc after 30 mins; type: functional, organism-based; design: dose 0.3 mg/kg
Rattus norvegicus [7] = assay: Effect on cAMP level in Sprague-Dawley rat heart at 0.3 mg/kg, sc after 30 mins; type: functional, organism-based; design: dose 0.3 mg/kg
Rattus norvegicus [8] = assay: Effect on cAMP level in Sprague-Dawley rat liver at 0.3 mg/kg, sc after 30 mins; type: functional, organism-based; design: dose 0.3 mg/kg
Rattus norvegicus [9] = assay: Effect on cAMP level in Sprague-Dawley rat striatum at 0.3 mg/kg, sc after 30 mins; type: functional, organism-based; design: dose 0.3 mg/kg
Rattus norvegicus [10] = assay: Effect on cAMP level in Sprague-Dawley rat cortex at 0.3 mg/kg, sc after 30 mins; type: functional, organism-based; design: dose 0.3 mg/kg
Rattus norvegicus [11] = assay: Induction of cAMP level in Sprague-Dawley rat hypothalamus at 0.3 mg/kg, sc cotreated with 15 mg/kg, sc morphine 30 mins before sacrifice; type: functional, organism-based
Rattus norvegicus [12] = assay: Antagonism of morphine-induced analgesia in sc dosed rat
[13] = Activity at alpha-adrenoceptor in rat seminal vesicle assessed as potency for producing 50% of that of l-epinephrine-induced contraction relative to soterenol; type: tissue-based
Rattus norvegicus [14] = assay: Analgesic activity in sc dosed rat by tail flick test; type: functional
Rattus norvegicus [15] = organism: Rattus norvegicus; assay: Anorexiant activity in rat by free feeding method relative to d-amphetamine; type: functional
Canis familiaris = organism: Canis familiaris; assay: Anorexiant activity in dog by free feeding method relative to d-amphetamine; type: functional, Canis lupus familiaris
Rattus norvegicus [16] = organism: Rattus norvegicus; settings: Tail
Mus musculus [17] = assay: Inhibition of reserpine-induced ptosis in po dosed mouse at 25 mg/kg, po; type: functional, organism-based; design: dose 25 mg/kg
[18] = Blockade of alpha-adrenoceptor in rat seminal vesicle relative to phentolamine; type: tissue-based
Hypothalamus [19] = assay: Drug uptake in Sprague-Dawley rat hypothalamus at 0.2 mg/kg, ip after 30 mins; type: ADME, organism-based; design: dose 0.2 mg/kg, route intraperitoneal; settings: in vivo, 0.5 h
Brain = assay: Drug uptake in Sprague-Dawley rat whole brain at 0.2 mg/kg, ip after 30 mins; type: ADME, organism-based; design: dose 0.2 mg/kg, route intraperitoneal; settings: in vivo, 0.5 h
Hypothalamus [20] = assay: Drug uptake in Sprague-Dawley rat hypothalamus at 0.3 mg/kg, ip after 30 mins; type: ADME, organism-based; design: dose 0.3 mg/kg, route intraperitoneal; settings: in vivo, 0.5 h
[21] = Mus musculus, sc, read-out: ED50
[22] = Mus musculus, po, read-out: ED50

CC(C)(Cc1ccccc1)NCCc1ccc(O)c(NS(C)(=O)=O)c1
fold change (FC) (Cavia porcellus): 0.31
Activity (Rattus norvegicus [1]): inactive

CS(=O)(=O)Nc1cc(C(O)CNC2CC2)ccc1O (stereo in doubt; 46)
fold change (FC) (Cavia porcellus): 0.0035
Activity (Rattus norvegicus [2]): inactive

CC(C)NCC(O)c1ccc(O)c(NS(C)(=O)=O)c1 (centres undefined) [SOTERENOL]
ED50 (Mus musculus [3]; [21]): > 40 mg/kg
ED50 (Mus musculus [4]; [22]): 7.6 mg/kg
ED50 (Mus musculus [5]; [22]): 16.5 mg/kg

CS(=O)(=O)Nc1cc(C(O)CNC2CC2)ccc1O (stereo in doubt; 44)
fold change (FC) (Cavia porcellus): 0.7
Activity (Rattus norvegicus [6]): Active
Activity (Rattus norvegicus [7]): inactive
Activity (Rattus norvegicus [8]): inactive
Activity (Rattus norvegicus [9]): inactive
Activity (Rattus norvegicus [10]): inactive
Activity (Rattus norvegicus [11]): Active

CC1(NCC(O)c2ccc(O)c(NS(C)(=O)=O)c2)CC1.Cl (centres undefined)
fold change (FC) (Cavia porcellus): 2.33
ED50 (Mus musculus [4]; [22]): 0.52 mg/kg
ED50 (Mus musculus [5]; [22]): 1.1 mg/kg
ED50 (Rattus norvegicus [12]): 1 mg/kg

C[C@H](NC1CC1)[C@H](O)c1ccc(O)c(NS(C)(=O)=O)c1.Cl (relative stereo)
fold change (FC) (Cavia porcellus): 0.11
ED50 (Mus musculus [4]; [22]): 0.51 mg/kg
ED50 (Mus musculus [5]; [22]): 0.76 mg/kg
Activity (Rattus norvegicus [1]): inactive

CS(=O)(=O)Nc1cc(C(O)CNC2CC2)ccc1O.Cl (single isomer, unassigned; (-))
ED50 (Mus musculus [3]): 0.66 mg/kg
fold change (FC) [13]: 108
ED50 (Mus musculus [4]): 0.175 mg/kg
ED50 (Mus musculus [5]): 0.23 mg/kg

CS(=O)(=O)Nc1cc(C(O)CNC2(Cc3ccccc3)CC2)ccc1O.Cl (centres undefined)
fold change (FC) (Cavia porcellus): 0.14
ED50 (Mus musculus [4]; [22]): 0.15 mg/kg
ED50 (Mus musculus [5]; [22]): 0.32 mg/kg
ED50 (Rattus norvegicus [12]): 4.7 mg/kg

CS(=O)(=O)Nc1cc(C(O)CNC2CC2)ccc1O.Cl (stereo in doubt; 44)
ED50 (Mus musculus [3]): 0.56 mg/kg
ED50 (Rattus norvegicus [14]): 5 mg/kg
fold change (FC) [13]: 68.8
ED50 (Mus musculus [4]): 0.265 mg/kg
ED50 (Mus musculus [5]; [22]): 0.255 mg/kg
ED50 (Rattus norvegicus [12]): 0.275 mg/kg
fold change (FC) (Rattus norvegicus [15]): 22
fold change (FC) (Canis familiaris): 22

CC(C)NCC(O)c1ccc(O)c(NS(C)(=O)=O)c1 (centres undefined)
Activity (Rattus norvegicus [1]): inactive
ED50 (Rattus norvegicus [16]): inactive

CC(C)(Cc1ccccc1)NCC(O)c1ccc(O)c(NS(C)(=O)=O)c1.Cl (centres undefined) [ZINTEROL HYDROCHLORIDE]
fold change (FC) (Cavia porcellus): 7.9
fold change (FC) [13]: 0
inhibition (Mus musculus [17]): inactive
ED50 (Rattus norvegicus [12]): 18.8 mg/kg
fold change (FC) [18]: 0.1
fold change (FC) (Rattus norvegicus [15]): 11
fold change (FC) (Canis familiaris): 11
ED50 (Rattus norvegicus [16]): inactive

Cl.Oc1ccc(CCNC2CC2)cc1O
ED50 (Mus musculus [3]; [21]): > 6 mg/kg
Activity (Rattus norvegicus [1]; route subcutaneous): 32.8%

CN(C)CCCN1c2ccccc2CCc2ccccc21.Cl [IMIPRAMINE HYDROCHLORIDE]
ED50 (Mus musculus [4]; [22]): 4.97 mg/kg
ED50 (Mus musculus [5]; [22]): > 320 mg/kg

CS(=O)(=O)Nc1cc(C(=O)CNC2CC2)ccc1O.Cl
ED50 (Mus musculus [3]; [21]): > 6 mg/kg
Activity (Rattus norvegicus [1]): inactive

CS(=O)(=O)Nc1cc(C(O)CNC2CC2)ccc1O (single isomer, unassigned; (-))
fold change (FC) (Cavia porcellus): 1.9

CN1CC[C@]23c4c5ccc(O)c4O[C@H]2[C@@H](O)C=C[C@H]3[C@H]1C5.CN1CC[C@]23c4c5ccc(O)c4O[C@H]2[C@@H](O)C=C[C@H]3[C@H]1C5.O=S(=O)(O)O
ED50 (Mus musculus [3]; [21]): 0.62 mg/kg
ED50 (Rattus norvegicus [14]): 1.9 mg/kg

Oc1ccc(C(O)CNC2CC2)cc1 (centres undefined)
ED50 (Mus musculus [3]; [21]): 5.6 mg/kg
fold change (FC) (Cavia porcellus): 0.0136
Activity (Rattus norvegicus [1]): inactive
ED50 (Rattus norvegicus [16]): inactive

CC(C)NCC(O)c1ccc(O)c(NS(C)(=O)=O)c1.Cl (centres undefined) [SOTERENOL HYDROCHLORIDE]
Drug uptake (Hypothalamus [19]): Not Active
Drug uptake (Brain): Not Active
Drug uptake (Hypothalamus [20]): Active
